Laboratory results taken from the supplement of paper PMC4862054.

System: Hs578T
Assay: normalised response (% of control), CellTiter-Glo; higher = more viable cells (100 = DMSO, 0 = benzethonium chloride kill control)
Settings: incubation time: 72 h
Description: (§1)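 DSRT, 72 h incubation, CellTox Green / CellTiter-Glo readout. Signal is normalised to DMSO and benzethonium chloride controls. Value is the normalised response at dose 3.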

**Q.** How did the normalised response turn out when `COc1cc(Nc2c(C#N)cnc3cc(OCCCN4CCN(C)CC4)c(OC)cc23)c(Cl)cc1Cl` [Bosutinib] (100 nM) was run?
**A.** 99%

**Q.** `CCN(CC)CCCC(C)Nc1ccnc2cc(Cl)ccc12` (stereo not given) [Chloroquine] (1000 nM) was tested. Which normalised response did it give?
**A.** 96%

**Q.** With `CC(C)(C)c1nc(-c2cccc(NS(=O)(=O)c3c(F)cccc3F)c2F)c(-c2ccnc(N)n2)s1` [Dabrafenib] (25 nM) as the compound, how does the normalised response read?
**A.** 104%

**Q.** `CO[C@@]12[C@H](COC(N)=O)C3=C(C(=O)C(C)=C(N)C3=O)N1C[C@@H]1N[C@@H]12` [Mitomycin C] (100 nM) was tested. Which normalised response did it give?
**A.** 98.9%

**Q.** Which normalised response does the source give for `CC1(C)CCC(c2ccc(Cl)cc2)=C(CN2CCN(c3ccc(C(=O)NS(=O)(=O)c4ccc(N[C@H](CCN5CCOCC5)CSc5ccccc5)c(S(=O)(=O)C(F)(F)F)c4)cc3)CC2)C1` [Navitoclax] (100 nM) here?
**A.** 93.6%

**Q.** Which normalised response does the source give for `CC(C)n1cnc2c(NCCc3ccc(O)cc3)nc(-c3csc4ccccc34)nc21` [StemRegenin 1] (100 nM) here?
**A.** 103%

System: MCF-10A
Assay: as above
Settings: incubation time: 72 h
Description: as §1

**Q.** How did the normalised response turn out when `CCn1c(C(=O)N(C2CC2)C2CC2)cc2c3c(ncn3C)c(Nc3cc(C)n(C)n3)nc21` (100 nM) was run?
**A.** 106%

**Q.** For `COc1ccc(S(=O)(=O)Nc2cccnc2Nc2ccc(O)cc2)cc1` [ABT-751] (100 nM), which normalised response is on record?
**A.** 96.6%

**Q.** `CCNC(=O)CCC/C=C\C[C@@H]1[C@@H](/C=C/[C@@H](O)CCc2ccccc2)[C@H](O)C[C@@H]1O` [Bimatoprost] (55 nM) was tested. Which normalised response did it give?
**A.** 90.1%

**Q.** Which normalised response does the source give for `COc1cc(Nc2c(C#N)cnc3cc(OCCCN4CCN(C)CC4)c(OC)cc23)c(Cl)cc1Cl` [Bosutinib] (100 nM) here?
**A.** 77.4%

**Q.** How did the normalised response turn out when `CCN(CC)CCCC(C)Nc1ccnc2cc(Cl)ccc12` (stereo not given) [Chloroquine] (1000 nM) was run?
**A.** 94.4%

**Q.** For `CC(C)(C)c1nc(-c2cccc(NS(=O)(=O)c3c(F)cccc3F)c2F)c(-c2ccnc(N)n2)s1` [Dabrafenib] (25 nM), which normalised response is on record?
**A.** 115%

**Q.** With `CO[C@@]12[C@H](COC(N)=O)C3=C(C(=O)C(C)=C(N)C3=O)N1C[C@@H]1N[C@@H]12` [Mitomycin C] (100 nM) as the compound, how does the normalised response read?
**A.** 92.2%

**Q.** `CC1(C)CCC(c2ccc(Cl)cc2)=C(CN2CCN(c3ccc(C(=O)NS(=O)(=O)c4ccc(N[C@H](CCN5CCOCC5)CSc5ccccc5)c(S(=O)(=O)C(F)(F)F)c4)cc3)CC2)C1` [Navitoclax] (100 nM) was tested. Which normalised response did it give?
**A.** 91.4%

**Q.** With `CC(C)n1cnc2c(NCCc3ccc(O)cc3)nc(-c3csc4ccccc34)nc21` [StemRegenin 1] (100 nM) as the compound, how does the normalised response read?
**A.** 99.5%

System: MDA-MB-436
Assay: as above
Settings: incubation time: 72 h
Description: as §1

**Q.** How did the normalised response turn out when `CCn1c(C(=O)N(C2CC2)C2CC2)cc2c3c(ncn3C)c(Nc3cc(C)n(C)n3)nc21` (100 nM) was run?
**A.** 106%

**Q.** Which normalised response does the source give for `COc1ccc(S(=O)(=O)Nc2cccnc2Nc2ccc(O)cc2)cc1` [ABT-751] (100 nM) here?
**A.** 98.5%

**Q.** Which normalised response does the source give for `CCNC(=O)CCC/C=C\C[C@@H]1[C@@H](/C=C/[C@@H](O)CCc2ccccc2)[C@H](O)C[C@@H]1O` [Bimatoprost] (55 nM) here?
**A.** 100%

**Q.** How did the normalised response turn out when `COc1cc(Nc2c(C#N)cnc3cc(OCCCN4CCN(C)CC4)c(OC)cc23)c(Cl)cc1Cl` [Bosutinib] (100 nM) was run?
**A.** 103%

**Q.** Which normalised response does the source give for `CCN(CC)CCCC(C)Nc1ccnc2cc(Cl)ccc12` (stereo not given) [Chloroquine] (1000 nM) here?
**A.** 108%

**Q.** Which normalised response does the source give for `CC(C)(C)c1nc(-c2cccc(NS(=O)(=O)c3c(F)cccc3F)c2F)c(-c2ccnc(N)n2)s1` [Dabrafenib] (25 nM) here?
**A.** 111%

**Q.** For `CO[C@@]12[C@H](COC(N)=O)C3=C(C(=O)C(C)=C(N)C3=O)N1C[C@@H]1N[C@@H]12` [Mitomycin C] (100 nM), which normalised response is on record?
**A.** 90.8%

**Q.** With `CC1(C)CCC(c2ccc(Cl)cc2)=C(CN2CCN(c3ccc(C(=O)NS(=O)(=O)c4ccc(N[C@H](CCN5CCOCC5)CSc5ccccc5)c(S(=O)(=O)C(F)(F)F)c4)cc3)CC2)C1` [Navitoclax] (100 nM) as the compound, how does the normalised response read?
**A.** 91.9%

**Q.** How did the normalised response turn out when `CC(C)n1cnc2c(NCCc3ccc(O)cc3)nc(-c3csc4ccccc34)nc21` [StemRegenin 1] (100 nM) was run?
**A.** 101%

System: HDQ-P1
Assay: as above
Settings: incubation time: 72 h
Description: as §1

**Q.** With `CCn1c(C(=O)N(C2CC2)C2CC2)cc2c3c(ncn3C)c(Nc3cc(C)n(C)n3)nc21` (100 nM) as the compound, how does the normalised response read?
**A.** 98.3%

**Q.** With `COc1ccc(S(=O)(=O)Nc2cccnc2Nc2ccc(O)cc2)cc1` [ABT-751] (100 nM) as the compound, how does the normalised response read?
**A.** 96%

**Q.** For `CCNC(=O)CCC/C=C\C[C@@H]1[C@@H](/C=C/[C@@H](O)CCc2ccccc2)[C@H](O)C[C@@H]1O` [Bimatoprost] (55 nM), which normalised response is on record?
**A.** 94.2%

**Q.** How did the normalised response turn out when `COc1cc(Nc2c(C#N)cnc3cc(OCCCN4CCN(C)CC4)c(OC)cc23)c(Cl)cc1Cl` [Bosutinib] (100 nM) was run?
**A.** 85.9%

**Q.** For `CCN(CC)CCCC(C)Nc1ccnc2cc(Cl)ccc12` (stereo not given) [Chloroquine] (1000 nM), which normalised response is on record?
**A.** 103%

**Q.** Which normalised response does the source give for `CC(C)(C)c1nc(-c2cccc(NS(=O)(=O)c3c(F)cccc3F)c2F)c(-c2ccnc(N)n2)s1` [Dabrafenib] (25 nM) here?
**A.** 103%

**Q.** With `CO[C@@]12[C@H](COC(N)=O)C3=C(C(=O)C(C)=C(N)C3=O)N1C[C@@H]1N[C@@H]12` [Mitomycin C] (100 nM) as the compound, how does the normalised response read?
**A.** 104%

**Q.** With `CC1(C)CCC(c2ccc(Cl)cc2)=C(CN2CCN(c3ccc(C(=O)NS(=O)(=O)c4ccc(N[C@H](CCN5CCOCC5)CSc5ccccc5)c(S(=O)(=O)C(F)(F)F)c4)cc3)CC2)C1` [Navitoclax] (100 nM) as the compound, how does the normalised response read?
**A.** 96.8%

**Q.** Which normalised response does the source give for `CC(C)n1cnc2c(NCCc3ccc(O)cc3)nc(-c3csc4ccccc34)nc21` [StemRegenin 1] (100 nM) here?
**A.** 95.2%

System: MFM-223
Assay: as above
Settings: incubation time: 72 h
Description: as §1

**Q.** With `CCn1c(C(=O)N(C2CC2)C2CC2)cc2c3c(ncn3C)c(Nc3cc(C)n(C)n3)nc21` (100 nM) as the compound, how does the normalised response read?
**A.** 99.8%

**Q.** With `COc1ccc(S(=O)(=O)Nc2cccnc2Nc2ccc(O)cc2)cc1` [ABT-751] (100 nM) as the compound, how does the normalised response read?
**A.** 101%

**Q.** With `CCNC(=O)CCC/C=C\C[C@@H]1[C@@H](/C=C/[C@@H](O)CCc2ccccc2)[C@H](O)C[C@@H]1O` [Bimatoprost] (55 nM) as the compound, how does the normalised response read?
**A.** 104%

**Q.** Which normalised response does the source give for `COc1cc(Nc2c(C#N)cnc3cc(OCCCN4CCN(C)CC4)c(OC)cc23)c(Cl)cc1Cl` [Bosutinib] (100 nM) here?
**A.** 99.3%

**Q.** How did the normalised response turn out when `CCN(CC)CCCC(C)Nc1ccnc2cc(Cl)ccc12` (stereo not given) [Chloroquine] (1000 nM) was run?
**A.** 93.4%

**Q.** `CC(C)(C)c1nc(-c2cccc(NS(=O)(=O)c3c(F)cccc3F)c2F)c(-c2ccnc(N)n2)s1` [Dabrafenib] (25 nM) was tested. Which normalised response did it give?
**A.** 106%

**Q.** `CO[C@@]12[C@H](COC(N)=O)C3=C(C(=O)C(C)=C(N)C3=O)N1C[C@@H]1N[C@@H]12` [Mitomycin C] (100 nM) was tested. Which normalised response did it give?
**A.** 93.8%
